According to patent publication US11000033B2, “Ketone or oxime compound, and herbicide” (NISSAN CHEMICAL CORPORATION, priority 2014, dated 2021):

How the values were obtained:
[1] = test system: Echinochloa crus-galli var. crus-galli; assay: Test Example 3: herbicidal effect by foliage application, Wagner pot (symbol H); type: in vivo; conditions: application herbicide amount 320 g/ha
How it was run: (§1)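 In a shallow-flooded alluvial soil system held at 25–30 °C, plants including rice grew for 14 days and were then sprayed over the foliage with emulsion diluted to a fixed herbicide amount. Visual rating followed at 3 weeks.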

[2] = test system: Leptochloa chinensis; assay: Test Example 3: herbicidal effect by foliage application, Wagner pot (symbol D); type: in vivo; conditions: application herbicide amount 320 g/ha
How it was run: as §1

[3] = test system: Cyperus difformis; assay: Test Example 3: herbicidal effect by foliage application, Wagner pot (symbol E); type: in vivo; conditions: application herbicide amount 320 g/ha
How it was run: as §1

[4] = test system: directly sowed rice plant; assay: Test Example 3: effect on crop by foliage application, Wagner pot (symbol b); type: in vivo; conditions: application herbicide amount 320 g/ha
How it was run: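 Plants are raised from seed in flooded paddy conditions: water stands 0.1–0.5 cm over alluvial soil, and the pot is kept in a greenhouse at 25–30 °C. Species sown are barnyardgrass (E. crus-galli var. crus-galli), Leptochloa chinensis, Cyperus difformis and rice.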

[5] = test system: Digitaria ciliaris; assay: Test Example 5: herbicidal effect by foliage application, plastic box (symbol F); type: in vivo; conditions: 320 g/ha, 3 weeks after application
How it was run: (§2)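 Effect is rated 3 weeks after a foliar spray of water-diluted emulsion concentrate at a predetermined herbicide amount. Plants had grown 14 days in a 25° C. to 30° C. greenhouse from seed in sterilized diluvial soil.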

[6] = test system: Setaria viridis; assay: Test Example 5: herbicidal effect by foliage application, plastic box (symbol G); type: in vivo; conditions: 320 g/ha, 3 weeks after application
How it was run: as §2

[7] = test system: Echinochloa crus-galli var. crus-galli; assay: Test Example 5: herbicidal effect by foliage application, plastic box (symbol H); type: in vivo; conditions: 320 g/ha, 3 weeks after application
How it was run: as §2

[8] = test system: Avena fatua; assay: Test Example 5: herbicidal effect by foliage application, plastic box (symbol I); type: in vivo; conditions: 320 g/ha, 3 weeks after application
How it was run: as §2

[9] = test system: Alopecurus myosuroides; assay: Test Example 5: herbicidal effect by foliage application, plastic box (symbol J); type: in vivo; conditions: 320 g/ha, 3 weeks after application
How it was run: as §2

[10] = test system: Lolium multiflorum Lam.; assay: Test Example 5: herbicidal effect by foliage application, plastic box (symbol K); type: in vivo; conditions: 320 g/ha, 3 weeks after application
How it was run: as §2

[11] = test system: Apera spica-venti; assay: Test Example 5: herbicidal effect by foliage application, plastic box (symbol L); type: in vivo; conditions: 320 g/ha, 3 weeks after application
How it was run: as §2

[12] = test system: Abutilon theophrasti; assay: Test Example 5: herbicidal effect by foliage application, plastic box (symbol M); type: in vivo; conditions: 320 g/ha, 3 weeks after application
How it was run: as §2

[13] = test system: Amaranthus retroflexus; assay: Test Example 5: herbicidal effect by foliage application, plastic box (symbol N); type: in vivo; conditions: 320 g/ha, 3 weeks after application
How it was run: as §2

[14] = test system: Chenopodium album; assay: Test Example 5: herbicidal effect by foliage application, plastic box (symbol O); type: in vivo; conditions: 320 g/ha, 3 weeks after application
How it was run: as §2

[15] = test system: Stellaria media; assay: Test Example 5: herbicidal effect by foliage application, plastic box (symbol P); type: in vivo; conditions: 320 g/ha, 3 weeks after application
How it was run: as §2

[16] = test system: Galium spurium; assay: Test Example 5: herbicidal effect by foliage application, plastic box (symbol Q); type: in vivo; conditions: 320 g/ha, 3 weeks after application
How it was run: as §2

[17] = test system: Veronica persica; assay: Test Example 5: herbicidal effect by foliage application, plastic box (symbol R); type: in vivo; conditions: 320 g/ha, 3 weeks after application
How it was run: as §2

[18] = test system: corn; assay: Test Example 5: effect on crop by foliage application, plastic box (symbol c); type: in vivo; conditions: 320 g/ha, 3 weeks after application
How it was run: (§3)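 Foliage-application test plants come from spot sowing in sterilized diluvial soil under a soil layer of about 1.5 cm, grown at 25° C. to 30° C. in a greenhouse.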

[19] = test system: soybean; assay: Test Example 5: effect on crop by foliage application, plastic box (symbol d); type: in vivo; conditions: 320 g/ha, 3 weeks after application
How it was run: as §3

[20] = test system: rice plant; assay: Test Example 5: effect on crop by foliage application, plastic box (symbol b); type: in vivo; conditions: 320 g/ha, 3 weeks after application
How it was run: as §3

[21] = test system: wheat; assay: Test Example 5: effect on crop by foliage application, plastic box (symbol e); type: in vivo; conditions: 320 g/ha, 3 weeks after application
How it was run: as §3

[22] = test system: beet; assay: Test Example 5: effect on crop by foliage application, plastic box (symbol f); type: in vivo; conditions: 320 g/ha, 3 weeks after application
How it was run: as §3

[23] = test system: rapeseed; assay: Test Example 5: effect on crop by foliage application, plastic box (symbol g); type: in vivo; conditions: 320 g/ha, 3 weeks after application
How it was run: as §3

SMILES: CON=C(C)CC1CC(O)=C(c2c(C)cc(C#N)cc2C)C1=O (stereo not drawn) [6-027]
- herbicidal effect on H (Echinochloa crus-galli var. crus-galli), grade 0-5 [1]: 2 (Herbicidal ratio of 20% or higher and lower than 40%)
- herbicidal effect on D (Leptochloa chinensis), grade 0-5 [2]: 3 (Herbicidal ratio of 40% or higher and lower than 70%)
- herbicidal effect on E, grade 0-5 [3]: 0 (Herbicidal ratio of 5% or lower (almost no effect))
- effect on crop b (directly sowed rice plant), grade 0-5 [4]: 0 (Herbicidal ratio of 5% or lower (almost no effect))
- F: Digitaria ciliaris, herbicidal effect grade [5]: 3 (Herbicidal ratio of 40% or higher and lower than 70%)
- G: Setaria viridis, herbicidal effect grade [6]: 4 (Herbicidal ratio of 70% or higher and lower than 90%)
- H: Echinochloa crus-galli var. crus-galli, herbicidal effect grade [7]: 4 (Herbicidal ratio of 70% or higher and lower than 90%)
- I: Avena fatua, herbicidal effect grade [8]: 1 (Herbicidal ratio of 5% or higher and lower than 20%)
- J: Alopecurus myosuroides, herbicidal effect grade [9]: 0 (Herbicidal ratio of 5% or lower (almost no effect))
- K: Lolium multiflorum Lam., herbicidal effect grade [10]: 0 (Herbicidal ratio of 5% or lower (almost no effect))
- L: Apera spica-venti, herbicidal effect grade [11]: 0 (Herbicidal ratio of 5% or lower (almost no effect))
- M: Abutilon theophrasti, herbicidal effect grade [12]: 0 (Herbicidal ratio of 5% or lower (almost no effect))
- N: Amaranthus retroflexus, herbicidal effect grade [13]: 0 (Herbicidal ratio of 5% or lower (almost no effect))
- O: Chenopodium album, herbicidal effect grade [14]: 0 (Herbicidal ratio of 5% or lower (almost no effect))
- P: Stellaria media, herbicidal effect grade [15]: 0 (Herbicidal ratio of 5% or lower (almost no effect))
- Q: Galium spurium, herbicidal effect grade [16]: 0 (Herbicidal ratio of 5% or lower (almost no effect))
- R: Veronica persica, herbicidal effect grade [17]: 0 (Herbicidal ratio of 5% or lower (almost no effect))
- c: corn, effect on crop grade [18]: 1 (Herbicidal ratio of 5% or higher and lower than 20%)
- d: soybean, effect on crop grade [19]: 0 (Herbicidal ratio of 5% or lower (almost no effect))
- b: directly sowed rice plant, effect on crop grade [20]: 1 (Herbicidal ratio of 5% or higher and lower than 20%)
- e: wheat, effect on crop grade [21]: 0 (Herbicidal ratio of 5% or lower (almost no effect))
- f: beet, effect on crop grade [22]: 0 (Herbicidal ratio of 5% or lower (almost no effect))
- g: rapeseed, effect on crop grade [23]: 0 (Herbicidal ratio of 5% or lower (almost no effect))
- melting point: 181 to 184 °C
